Source: ChEMBL document CHEMBL3885881, “DrugMatrix”

Organism: Rattus norvegicus
Assay type: toxicity, organism-based, Sprague-Dawley
Settings: in vivo, po, route oral GAVAGE, vehicle 100 % SALINE; for ABSOLUTE EOSINOPHIL / ABSOLUTE LYMPHOCYTE / ABSOLUTE MONOCYTE / ABSOLUTE SEGMENTED NEUTROPHIL / BASOPHIL / EOSINOPHIL / ERYTHROCYTE COUNT / HEMATOCRIT / HEMOGLOBIN / LEUKOCYTE COUNT / LYMPHOCYTE / MEAN CORPUSCULAR HEMOGLOBIN / MEAN CORPUSCULAR HEMOGLOBIN CONCENTRATION / MONOCYTE / NEUTROPHIL / NUCLEATED RED BLOOD CELLS / PLATELET COUNT: tissue Blood; for ALANINE AMINOTRANSFERASE / ALBUMIN / ALKALINE PHOSPHATASE / ASPARTATE AMINOTRANSFERASE / BLOOD UREA NITROGEN / CARBON DIOXIDE / CHLORIDE / CHOLESTEROL / CREATINE PHOSPHOKINASE / CREATININE / GLUCOSE / LACTATE DEHYDROGENASE / LIPASE / PHOSPHORUS / POTASSIUM / SODIUM / TOTAL BILIRUBIN / TOTAL PROTEIN / URIC ACID: tissue Plasma
[1] = 700 mg/kg, 24 h, dose level Low, time 1 day
[2] = 2100 mg/kg, 6 h, dose level High, time 0.25 day
[3] = 2100 mg/kg, 24 h, dose level High, time 1 day

Description: DrugMatrix - Regimen: Single

With `CN(C)C=O` [DIMETHYLFORMAMIDE] as the compound, how does the “ABSOLUTE EOSINOPHIL” value [1] read?
The value was 0 CELLS/uL.

What about the “ABSOLUTE LYMPHOCYTE” value [1] of the same compound?
The value was 11354.83 CELLS/uL.

What about the “ABSOLUTE MONOCYTE” value [1] of the same compound?
Its value is 102.33 CELLS/uL.

What about the “ABSOLUTE SEGMENTED NEUTROPHIL” value [1] of the same compound?
The value was 726.17 CELLS/uL.

What about the BASOPHIL [1] of the same compound?
The BASOPHIL was 0%.

What about the EOSINOPHIL [1] of the same compound?
The EOSINOPHIL was 0%.

What about the “ERYTHROCYTE COUNT” value [1] of the same compound?
Its value is 5.12 x10E6/uL.

What about the HEMATOCRIT [1] of the same compound?
The HEMATOCRIT was 33.43%.

What about the HEMOGLOBIN [1] of the same compound?
The HEMOGLOBIN was 13.52 G/DL.

And the “LEUKOCYTE COUNT” value [1]?
Its value is 12.18 x10E3/uL.

What about the LYMPHOCYTE [1] of the same compound?
The LYMPHOCYTE was 93.17%.

What about the “MEAN CORPUSCULAR HEMOGLOBIN” value [1] of the same compound?
Its value is 26.43 pg.

What about the “MEAN CORPUSCULAR HEMOGLOBIN CONCENTRATION” value [1] of the same compound?
The value was 40.52 G/DL.

And the MONOCYTE [1]?
The MONOCYTE was 0.83%.

And the NEUTROPHIL [1]?
Its NEUTROPHIL is 6%.

And the “NUCLEATED RED BLOOD CELLS” value [1]?
The value was 0 /100WBC.

And the “PLATELET COUNT” value [1]?
The value was 1092.67 x10E3/uL.

And the “ALANINE AMINOTRANSFERASE” value [1]?
Its value is 23.17 u/L.

And the ALBUMIN [1]?
Its ALBUMIN is 4.17 G/DL.

And the “ALKALINE PHOSPHATASE” value [1]?
Its value is 336.83 u/L.

What about the “ASPARTATE AMINOTRANSFERASE” value [1] of the same compound?
Its value is 50.5 u/L.

And the “BLOOD UREA NITROGEN” value [1]?
The value was 12.5 mg/dL.

What about the “CARBON DIOXIDE” value [1] of the same compound?
Its value is 31.17 mmol/L.

And the CHLORIDE [1]?
Its CHLORIDE is 96.83 MEQ/L.

And the CHOLESTEROL [1]?
The CHOLESTEROL was 74.83 mg/dL.

And the “CREATINE PHOSPHOKINASE” value [1]?
Its value is 314.83 u/L.

What about the CREATININE [1] of the same compound?
The CREATININE was 0.19 mg/dL.

And the GLUCOSE [1]?
Its GLUCOSE is 144.5 mg/dL.

What about the “LACTATE DEHYDROGENASE” value [1] of the same compound?
The value was 95 u/L.

What about the LIPASE [1] of the same compound?
Its LIPASE is 9.67 u/L.

And the PHOSPHORUS [1]?
The PHOSPHORUS was 10.98 mg/dL.

What about the POTASSIUM [1] of the same compound?
The POTASSIUM was 5.69 MEQ/L.

What about the SODIUM [1] of the same compound?
Its SODIUM is 142.42 MEQ/L.

What about the “TOTAL BILIRUBIN” value [1] of the same compound?
Its value is 0.12 mg/dL.

What about the “TOTAL PROTEIN” value [1] of the same compound?
The value was 6.2 G/DL.

And the “URIC ACID” value [1]?
Its value is 0.68 mg/dL.

What about the “ABSOLUTE EOSINOPHIL” value [2] of the same compound?
Its value is 125.17 CELLS/uL.

And the “ABSOLUTE LYMPHOCYTE” value [2]?
The value was 14316 CELLS/uL.

What about the “ABSOLUTE MONOCYTE” value [2] of the same compound?
Its value is 63 CELLS/uL.

And the “ABSOLUTE SEGMENTED NEUTROPHIL” value [2]?
The value was 1412.5 CELLS/uL.

And the BASOPHIL [2]?
Its BASOPHIL is 0%.

What about the EOSINOPHIL [2] of the same compound?
The EOSINOPHIL was 0.83%.

What about the “ERYTHROCYTE COUNT” value [2] of the same compound?
The value was 5.21 x10E6/uL.

And the HEMATOCRIT [2]?
Its HEMATOCRIT is 35.07%.

What about the HEMOGLOBIN [2] of the same compound?
The HEMOGLOBIN was 12.68 G/DL.

And the “LEUKOCYTE COUNT” value [2]?
Its value is 15.92 x10E3/uL.

And the LYMPHOCYTE [2]?
The LYMPHOCYTE was 89.67%.

What about the “MEAN CORPUSCULAR HEMOGLOBIN” value [2] of the same compound?
The value was 24.33 pg.

What about the “MEAN CORPUSCULAR HEMOGLOBIN CONCENTRATION” value [2] of the same compound?
The value was 36.2 G/DL.

What about the MONOCYTE [2] of the same compound?
The MONOCYTE was 0.33%.

And the NEUTROPHIL [2]?
The NEUTROPHIL was 9.17%.

And the “NUCLEATED RED BLOOD CELLS” value [2]?
Its value is 0 /100WBC.

What about the “PLATELET COUNT” value [2] of the same compound?
Its value is 1045.5 x10E3/uL.

What about the “ALANINE AMINOTRANSFERASE” value [2] of the same compound?
Its value is 61 u/L.

What about the ALBUMIN [2] of the same compound?
Its ALBUMIN is 4.12 G/DL.

And the “ALKALINE PHOSPHATASE” value [2]?
Its value is 276.83 u/L.

And the “ASPARTATE AMINOTRANSFERASE” value [2]?
The value was 108.5 u/L.

And the “BLOOD UREA NITROGEN” value [2]?
Its value is 6.5 mg/dL.

And the “CARBON DIOXIDE” value [2]?
The value was 20.17 mmol/L.

And the CHLORIDE [2]?
Its CHLORIDE is 106 MEQ/L.

What about the CHOLESTEROL [2] of the same compound?
The CHOLESTEROL was 72.83 mg/dL.

And the “CREATINE PHOSPHOKINASE” value [2]?
The value was 210.67 u/L.

And the CREATININE [2]?
Its CREATININE is 0.24 mg/dL.

What about the GLUCOSE [2] of the same compound?
The GLUCOSE was 180 mg/dL.

What about the “LACTATE DEHYDROGENASE” value [2] of the same compound?
Its value is 149.33 u/L.

And the LIPASE [2]?
The LIPASE was 8.17 u/L.

And the PHOSPHORUS [2]?
The PHOSPHORUS was 13.73 mg/dL.

What about the SODIUM [2] of the same compound?
The SODIUM was 144.38 MEQ/L.

What about the “TOTAL BILIRUBIN” value [2] of the same compound?
Its value is 0.1 mg/dL.

What about the “TOTAL PROTEIN” value [2] of the same compound?
Its value is 5.32 G/DL.

And the “URIC ACID” value [2]?
The value was 2.23 mg/dL.

What about the “ABSOLUTE EOSINOPHIL” value [3] of the same compound?
The value was 20.83 CELLS/uL.

What about the “ABSOLUTE LYMPHOCYTE” value [3] of the same compound?
Its value is 12212.83 CELLS/uL.

And the “ABSOLUTE MONOCYTE” value [3]?
Its value is 201.33 CELLS/uL.

What about the “ABSOLUTE SEGMENTED NEUTROPHIL” value [3] of the same compound?
The value was 481.67 CELLS/uL.

And the BASOPHIL [3]?
Its BASOPHIL is 0%.

And the EOSINOPHIL [3]?
Its EOSINOPHIL is 0.17%.

What about the “ERYTHROCYTE COUNT” value [3] of the same compound?
Its value is 5.11 x10E6/uL.

And the HEMATOCRIT [3]?
The HEMATOCRIT was 32.92%.

And the HEMOGLOBIN [3]?
Its HEMOGLOBIN is 13.1 G/DL.

What about the “LEUKOCYTE COUNT” value [3] of the same compound?
The value was 12.92 x10E3/uL.

What about the LYMPHOCYTE [3] of the same compound?
Its LYMPHOCYTE is 94.67%.

What about the “MEAN CORPUSCULAR HEMOGLOBIN” value [3] of the same compound?
The value was 25.65 pg.

What about the “MEAN CORPUSCULAR HEMOGLOBIN CONCENTRATION” value [3] of the same compound?
Its value is 39.83 G/DL.

What about the MONOCYTE [3] of the same compound?
Its MONOCYTE is 1.5%.

What about the NEUTROPHIL [3] of the same compound?
Its NEUTROPHIL is 3.67%.

What about the “NUCLEATED RED BLOOD CELLS” value [3] of the same compound?
The value was 0.17 /100WBC.

And the “PLATELET COUNT” value [3]?
The value was 1033.5 x10E3/uL.

What about the “ALANINE AMINOTRANSFERASE” value [3] of the same compound?
Its value is 24.17 u/L.

What about the ALBUMIN [3] of the same compound?
Its ALBUMIN is 4.07 G/DL.

What about the “ALKALINE PHOSPHATASE” value [3] of the same compound?
The value was 292.33 u/L.

And the “ASPARTATE AMINOTRANSFERASE” value [3]?
Its value is 43.17 u/L.

What about the “BLOOD UREA NITROGEN” value [3] of the same compound?
Its value is 10.5 mg/dL.

And the “CARBON DIOXIDE” value [3]?
Its value is 30.5 mmol/L.

And the CHLORIDE [3]?
The CHLORIDE was 99.17 MEQ/L.

And the CHOLESTEROL [3]?
The CHOLESTEROL was 80.33 mg/dL.

What about the “CREATINE PHOSPHOKINASE” value [3] of the same compound?
Its value is 164.67 u/L.

What about the CREATININE [3] of the same compound?
The CREATININE was 0.19 mg/dL.

What about the GLUCOSE [3] of the same compound?
The GLUCOSE was 147.33 mg/dL.

And the “LACTATE DEHYDROGENASE” value [3]?
The value was 73.33 u/L.

What about the LIPASE [3] of the same compound?
Its LIPASE is 10.33 u/L.

And the PHOSPHORUS [3]?
The PHOSPHORUS was 10.72 mg/dL.

What about the POTASSIUM [3] of the same compound?
Its POTASSIUM is 5.2 MEQ/L.

What about the SODIUM [3] of the same compound?
The SODIUM was 143.78 MEQ/L.

What about the “TOTAL BILIRUBIN” value [3] of the same compound?
Its value is 0.1 mg/dL.

What about the “TOTAL PROTEIN” value [3] of the same compound?
The value was 5.97 G/DL.

What about the “URIC ACID” value [3] of the same compound?
Its value is 0.63 mg/dL.
